Legend:
WST-1 cell viability = assay type: cell-based; details: human, uninfected HeLa cells, WST-1, relative to DMSO control as 100%
Experimental: (§1) Uninfected HeLa cells were cultured with 32 μM (the highest concentration used in antichlamydial analysis) of individual compound or 0.5% DMSO for 48 h. After 10 μL of WST-1 reagent was added, cells were incubated for an additional 1 h, and absorbance at 450 nm was recorded. The viability of compound-treated cells was calculated by the absorbance relative to that of DMSO control setting as 100% [22].

Uninfected HeLa cells = assay: WST-1 cell viability; assay type: cell-based; details: 32 μM, 48 h
Experimental: as §1

c1ccc(C2C3CC(c4ccccc4)N(c4ccccc4)C3ON2c2ccccc2)cc1 (stereo not shown) [Compound 1]
viability at 48 h, 32 µM (WST-1 cell viability): 101% | Effect on host cell viability / proliferation activity by WST-1, in words (Uninfected HeLa cells): did not show cytotoxicity

Clc1ccc(N2C(c3ccccc3)CC3C(c4ccccc4)N(c4ccccc4)OC32)cc1 (stereo not shown) [Compound 2]
viability at 48 h, 32 µM (WST-1 cell viability): 98.3% | Effect on host cell viability / proliferation activity by WST-1, in words (Uninfected HeLa cells): did not show cytotoxicity

Source: publication PMC7984888, “Inhibitory Activity of Pyrroloisoxazolidine Derivatives against Chlamydia trachomatis” (BioMed Research International, 2021)
